Each structure is given as a SMILES string.

Results on 2 compounds are retold here after patent US20040037806A1, “Aldosterone blocker therapy to prevent or treat inflammation-related disorders” (Pharmacia Corporation, priority 2002, published 2004).

What all share (format): in vivo, rat
A short description of assay [1]: Assay C: body weight, ventricle weights, tibia length (myocardial hypertrophy). The conditions noted are these: for Ventricular hypertrophy (absolute ventricular weights, ventricular weight to tibia length ratios): aldosterone+salt alone or with eplerenone 100 mg/kg/day, 7, 14, 30 days; for Body weight: aldosterone+salt at days 7, 14 and 30 vs vehicle+salt, eplerenone 100 mg/kg/day effect at day 30. Here is the method:
The procedure of Assay B was expanded upon in a further study. […] Myocardial tissue from animals in each treatment group was examined after 7, 14, or 30 days of treatment. […] Lesions were preceded by the expression and progressive upregulation of proinflammatory molecules. […] Male Sprague-Dawley rats, weighing 230 to 250 g, (Harlan Sprague-Dawley Industries, Indianapolis, Ind.) were housed in a room 12-hours light/12-hours dark daily cycle at an ambient temperature of 22±1° C. (n=96). Animals were allowed one week to adjust after arrival and had free access to TEKLAD 22/5 rodent diet (Harlan TEKLAD, Madison, Wis.) and tap water until the initiation of the experiment. Prior to surgery the animals were individually weighed and placed in one of the following groups: […] Potassium chloride supplementation was added to the saline solution in order to prevent the potential hypokalemia associated with aldosterone excess. Treatment At the time of the surgery, an Alzet 2002 osmotic minipump (Alza Corp., Palo Alto, Calif.) containing either vehicle (9% ethanol/87% propylene glycol/4% dH2O) or 1.0 mg/mL d-aldosterone (Sigma Chemical, St. Louis, Mo.) was inserted subcutaneously at the nape of the neck. Aldosterone was administered at a dose of 0.75 µg/hour. […] Animals were sacrificed from each group (n=8-13) after 7, 14, or 30 days of treatment. At the cessation of each experimental time point, the animals were anesthetized with pentobarbital (65 mg/kg i.p., Sigma Chemical, St. Louis Mo.) and weighed with a Mettler PM6000 balance (Mettler-Toledo, Inc., Hightstown, N.J.). The abdominal cavity was opened to expose the abdominal aorta. A 16-gauge needle was inserted into the abdominal aorta and the animal was exsanguinated into a 12 cc syringe. The blood sample was transferred immediately into glass serum collection tubes (Terumo Medical Corp., Elkton, Md.) for drug level analysis. The samples were placed on wet ice until sample collection was complete and centrifuged for 15 min at 3000 rev/min at 4° C. Following exsanguination, hearts and kidneys were isolated, removed, rinsed in cold phosphate-buffered saline, and blotted dry. Kidneys were immediately bifurcated through the long axis with a razor blade and placed in 10% neutral buffered formalin (NBF, Richard-Allen Scientific, Kalamazoo, Mich.). For the hearts, the right ventricle (RV) was cut away from the left ventricle (LV), both ventricles were weighed using a Mettler AE163 balance (Mettler-Toledo, Inc., Hightstown, N.J.), and the RV was placed in 10% NBF. […] Final wet trimming was completed after 3-4 days fixation where a second 2 mm coronal slab was removed for hydroxyproline analysis and a third 2mm slab was removed from the equatorial region for histology.

The test system of the next assay is Collagen I. Briefly: Assay C: Collagen I mRNA, TaqMan. As to conditions: 30 days, compared to vehicle+salt controls. As for the experimental part:
The procedure of Assay B was expanded upon in a further study. […] Myocardial tissue from animals in each treatment group was examined after 7, 14, or 30 days of treatment.
Potassium chloride supplementation was added to the saline solution in order to prevent the potential hypokalemia associated with aldosterone excess.
Treatment At the time of the surgery, an Alzet 2002 osmotic minipump (Alza Corp., Palo Alto, Calif.) containing either vehicle (9% ethanol/87% propylene glycol/4% dH2O) or 1.0 mg/mL d-aldosterone (Sigma Chemical, St. Louis, Mo.) was inserted subcutaneously at the nape of the neck. Aldosterone was administered at a dose of 0.75 µg/hour. […]
The fluorogenic 5′-nuclease assay (TaqMan PCR) using Applied Biosystems' 7700 Sequence Detection System (Applied Biosystems, Foster City, Calif.) allowed for real time detection/quantitation of a specific gene by monitoring the increase in fluorescence of a gene-specific, dye-labeled oligonucleotide probe. […] When the probe was annealed to the target gene, fluorescence of 6FAM was prevented by the close proximity of TAMRA. The exonuclease activity of Taq polymerase released the dyes from the oligonucleotide probe by displacing the probe from the target sequence resulting in fluorescence excitation in direct proportion to the amount of target message present. […]
Background: Real-time PCR tracks product formation cycle by cycle.

Another assay relates to cyclooxygenase-2 (COX-2). In words: Assay A: cyclooxygenase-2 immunostaining of hearts. The conditions noted are these: angiotensin II-infused, saline-drinking Wistar rats, eplerenone 100 mpk, aldosterone replacement in adrenalectomized rats.

In the case of `C[C@]12CCC(=O)C=C1CC[C@@H]1[C@@H]2[C@@H](O)C[C@]2(C=O)[C@@H](C(=O)CO)CC[C@@H]12` [aldosterone], in assay [1], the “Ventricular hypertrophy (absolute ventricular weights, ventricular weight to tibia length ratios)” value is “Significant left and right ventricular hypertrophy”; the Body weight entry is “significantly lower”. Further, the “Collagen type-I message” value with Collagen I is “modest increase”. In addition, in the assay with cyclooxygenase-2 (COX-2), the “Cyclooxygenase-2 expression in the heart (immunostaining)” value (“Cyclooxygenase-2 expression” for short) is “restored the presence of cycloxygenase-2 in coronary arteries”.

In the case of `COC(=O)[C@@H]1CC2=CC(=O)CC[C@]2(C)[C@@]23O[C@@H]2C[C@@]2(C)[C@@H](CC[C@@]24CCC(=O)O4)[C@H]13` [eplerenone], the “Final Body Weight” value in assay [1] (7 days of treatment, uninephrectomized Sprague-Dawley rats, 1% NaCl-0.3% KCl, aldosterone infusion alone or with eplerenone 100 mg/kg/day, individual rats and group Mean) is recorded as 286 g. Besides, in assay [1], the “Ventricular hypertrophy (absolute ventricular weights, ventricular weight to tibia length ratios)” value was “did not impact absolute ventricular weights or ventricular weight to tibia length ratios” and the Body weight result is recorded as “significantly attenuated”. The “Collagen type-I message” value with Collagen I was “modest increase”. For the same compound, the “Cyclooxygenase-2 expression” value in the assay on cyclooxygenase-2 (COX-2) is reported as “prevention by eplerenone of induction of COX-2 expression”. Besides, the “Cyclooxygenase-2 expression” value in the assay with cyclooxygenase-2 (COX-2) (listed as Eplerenone) is “markedly reduced and in most cases completely prevented the expression of cycloxygenase-2”.
